Experimental data taken from patent publication US20260007639A1, “COMPOUNDS FOR THE TREATMENT OF NEUROMUSCULAR DISORDERS” (NMD PHARMA A/S, priority 2017, published 2026).

How the values were obtained:
[1] = test system: female Lewis rats; test: In situ isometric hindlimb force in anaesthetised rats with neuromuscular transmission partially inhibited by Cisatracurium; assay type: in vivo, rat; details: 80 Hz stimulation, Cisatracurium infusion
Protocol: Isometric hindlimb force was measured in 12-week old female Lewis rats in the presence and absence of compound.
Rats were placed under anesthesia with isoflurane (2-4%), intubated and subsequently connected to a micro ventilator (Microvent 1, Hallowell EMC, US). Two stimulation electrodes were inserted through the skin to stimulate the sciatic nerve. A small incision was made proximal to the ankle, to expose the Achilles tendon, which was tied by cotton string, and connected to a force transducer (Fort250, World Precision Instruments) with adjustable position (Vernier control). The Achilles tendon was then cut distal to the attached cotton string. The rat was placed on a heated pad, and to prevent movement artefacts from contraction of the ankle dorsiflexors, the foot was fixated by tape on a footplate.
Muscle contractile properties were assessed by applying an electrical current (under supramaximal voltage conditions) to the nerve and recording the force generated by the muscle. The muscle was stretched until maximal force was obtained, when assessed by 2 Hz stimulation. Isometric force was measured every 30 seconds at 12 Hz (Twitch), 10 pulses, and at every 5 minutes at 80 Hz (Tetanic) for 1 second (80 pulses). This stimulation pattern was employed throughout the experiment, expect in few cases where 80 Hz stimulation was replaced by 12 Hz (10 pulses). […] When the level of neuromuscular inhibition was stable, the test article was injected i.v. at the chosen concentration. The effect of test article was assessed on its ability to increase force generated from the stimulation pattern applied. The effect was assessed in the ability to increase force per se (tetanic, 80 Hz, stimulation), and the ratio between individual twitch peaks (12 Hz stimulation). The effect was monitored for at least 1 hour after injection of test article. In addition, the time from injection of test article to maximal effect on force (both twitch and tetanic) was noted and the time for the effect to disappear (return to baseline), if possible. When appropriate the infusion of neuromuscular blocking agent was ceased, with the stimulation pattern continued, and the return of force to control levels was monitored. Animals were sacrificed by cervical dislocation while still fully sedated.

[2] = test system: rat soleus muscles; test: Recovery of force in isolated rat soleus nerve-muscle preparations after 115 nM tubocurarine, 50 μM compound (Table 8); details: 40 mins exposure
Protocol: Force traces from a representative muscle stimulated to contract in 1) control condition before addition of neuromuscular blocking agent, 2) the force response to stimulation after 90 minutes incubation with Tubocurarine. […] The traces presented in FIG. 12A (1, 2, 3), correspond to the dotted lines in FIG. 12B, respectively.
Recovery of force is quantified as the percentage of the force prior to tubocurarine that is recovered by the compound.
The current invention relates to compounds that inhibit CIC-1 ion channels and increase muscle excitability and thereby improve muscle function in clinical conditions where muscle activation is failing. Such conditions result in loss of contractile function of skeletal muscle, weakness and excessive fatigue. In this series of experiments the compounds were tested for their ability to restore contractile function of isolated rat muscle when the neuromuscular transmission had been compromised akin to neuromuscular disorders.
Experimentally, soleus muscles from 4-5 wk old rats were isolated with the motor nerve remaining attached. The nerve-muscle preparations were mounted in experimental setups that enabled electrical stimulation of the motor nerve. Stimulation of the motor nerve led to activation of the muscle fibres and ensuing force production that was recorded.
After mounting the nerve-muscle preparation in the experimental setup, the contractile function of the muscle was initially assessed under the control conditions (FIG. 2A). […] The experimental condition mimics the failing neuromuscular transmission in a range of neuromuscular disorders. After addition of tubocurarine the contractile force declined over the next 90 mins to 10-50% of the control force. 50 μM of the test compound was then added and the contractile force recovered despite the continued presence of tubocurarine. To quantify the ability of the compound to restore force the percentage of the initial force that was restored was determined after 40 mins of compound exposure (FIG. 2B) and the point increase is reported in Table 8.

Structure (SMILES) | average increase in tetanic force ([1]; 40.0 mg/kg i.v.) [%] | Point increase (%) of initial force that was restored [2] [%] | average increase in tetanic force ([1]; 24.6 mg/kg i.v.) [%] | average increase in tetanic force ([1]; 49.2 mg/kg i.v.) [%] | average increase in tetanic force ([1]; 44.8 mg/kg i.v.) [%]
C[C@H](Oc1ccc(Cl)cc1-c1ccno1)C(=O)O [Compound A-26, (2S)-2-[4-chloro-2-(1,2-oxazol-5-yl)phenoxy]propanoic acid] | 33.4 | 20 | – | – | –
O=C(O)[C@H](CF)Oc1ccc(Br)cc1-c1ccon1 [Compound A-31, (2R)-2-[4-bromo-2-(1,2-oxazol-3-yl)phenoxy]-3-fluoropropanoic acid] | 34.1 | 36 | – | – | –
C[C@H](Oc1cc(F)c(Br)cc1-c1ccon1)C(=O)O [Compound A-44, (2S)-2-[4-bromo-5-fluoro-2-(1,2-oxazol-3-yl)phenoxy]propanoic acid] | – | 27 | 46.2 | – | –
C[C@H](Oc1ccc(Br)cc1-c1csnn1)C(=O)O [Compound A-59, (2S)-2-[4-bromo-2-(1,2,3-thiadiazol-4-yl)phenoxy]propanoic acid] | – | 20 | – | 42.8 | –
O=C(O)COc1ccc(Br)cc1-c1ccon1 [Compound A-64, 2-[4-bromo-2-(1,2-oxazol-3-yl)phenoxy]acetic acid] | – | 25 | – | – | 57.7
